This passage reports Ki results from patent US9139615B2, “High-affinity, dimeric inhibitors of PSD-95 as efficient neuroprotectants against ischemic brain damage and for treatment of pain” (University of Copenhagen, priority 2011, dated 2015).

Where no end group is shown, it is not given here.

The experiment deals with T1, PDZ1-2 of PSD-95 (Homo sapiens, UniProt P78352).
T1 construct: made in house; host or cells: E. coli BL21-DE3 pLysS
As to the kind of experiment: Fluorescence polarization (FP) assay, affinity for PDZ1-2 of PSD-95. Type of experiment: binding. To be noted: Ki ± SEM, affinity towards PDZ1-2 of PSD-95, heterologous competition, probe AB143 0.5 nM, PDZ1-2 […], TBS pH 7.4; IC50 converted to Ki. The text has this: VI.i. Fluorescence Polarization (FP) Assay: as described below, Example 1 provides a convenient and reliable way to monitor and evaluate the inhibitor properties of a PSD-95 inhibitor of the invention. The FP assay allows a wide range of peptide analogues to be tested and compared with respect to their interaction with PDZ domains, and their specificity with respect to the tandem PDZ1-2 of PSD-95. PDZ1-2 is expressed using standard recombinant DNA technology known to those skilled in the art.
More specifically, the assay is based on a heterologous competition binding assay, where the affinity measured as IC50 of a given (non-fluorescent) peptide analogue for a PDZ domain is measured in the presence of a fixed concentration of a fluorescent labeled dimeric ligand (AB143; FIG. 4). Determined IC50 values are converted to Ki values (Nikolovska-Coleska et al, Anal. Biochem. 2004, 332, p. 261-273). The 5-FAM fluorophore may be attached to the dimeric ligand by coupling with HATU or HBTU.
The cDNA coding for PSD-95 PDZ1-2 tandem (corresponding to residues 61-249 in the human full-length PSD95α without exon 4b) were amplified by inverted PCR and cloned in a modified His-tagged pRSET vector (Invitrogen, Carlsbad, Calif., USA). The encoded PDZ1-2 peptide further comprised the sequence, […] (SEQ ID NO: 14), which was used as a tag for purification (His-tag), and the DNA coding sequences and encoded proteins are designated as follows: HIS-PDZ1-2 DNA [SEQ ID NO: 1] encoding HIS-PDZ1-2 protein [SEQ ID NO: 2]. Competent E. coli bacteria (BL21-DE3, pLysS) were transformed with PDZ1-2 expressing construct and grown overnight on agar plates containing ampicillin (100 μg/mL) and chloramphenicol (35 μg/mL) at 37° C. Colonies were picked and used to inoculate bacterial cultures (LB medium with 50 μg/mL ampicillin). These were shaken while being incubated at 37° C. until A600 of the culture reached 0.45, at which point 1 mM isopropyl β-D-1-thiogalactopyranoside was added. Induced cultures were incubated over night at 30° C. (PDZ1-2). Cells were harvested by spinning at 10,000 g for 10 min at 4° C. and re-suspended in lysis buffer (50 mM Tris/HCL pH 7.5, 1 mM PMSF, 25 μg/ml DNAse, 40 mM Mg2SO4). The cells were destroyed using a cell disruptor apparatus at 26 KPsi. The cell lysate was spun down at 35,000 g for 1 hour and the supernatant filtered with a 0.45 μm and a 0.22 μm filter. Purification of expressed PDZ1-2 peptide was performed with first a nickel (II)-charged column (HisTrap™ HP, GE Healthcare, UK) equilibrated with Tris-buffer (Tris/HCl buffer 50 mM, pH 7.5) followed by gel-filtration. For gel-filtration the PDZ1-2 sample was loaded on a Superdex™ 75 HR 10/30 column (GE Healthcare, UK) equilibrated with Tris buffer (20 mM Tris/HCL, pH 7.5) with a constant flow rate at 0.5 mL/min. The relevant fractions were analyzed on a SDS-PAGE gel stained by a standard silver staining protocol. The final purification was analyzed by electrospray ionization liquid chromatography-mass spectrometry (ESI-LC/MS) to get the exact molecular weight and thereby verify the identity of the PDZ1-2 domain. Molar extinction coefficients were found by amino acids analysis (Alphalyse, Odense, Denmark) and thereafter used for measuring protein concentrations. […]
An in vitro affinity measurement assay was developed based on the fluorescence polarization principle in order to provide affinity constants (Ki values) between synthesized ligands (e.g. dimeric inhibitors) and PDZ1-2 of PSD-95. […]
Background: Polarisation of emitted light reports the rotation of a fluorescent probe.

T1 sequence (P78352 with tags, fused parts or gaps): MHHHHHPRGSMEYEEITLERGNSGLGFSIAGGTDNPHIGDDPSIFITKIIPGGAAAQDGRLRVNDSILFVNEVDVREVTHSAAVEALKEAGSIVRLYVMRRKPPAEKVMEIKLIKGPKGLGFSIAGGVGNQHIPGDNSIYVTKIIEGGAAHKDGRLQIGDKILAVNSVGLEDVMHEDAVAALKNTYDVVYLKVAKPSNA

The term Ki denotes a measure of affinity in units of concentration, obtained from inhibition or displacement. For the sequence “YGRKKRRQRRRKLSSIESDV [Tat-NR2B9c, reference compound]”, the Ki is 4.6 ± 0.3 µM.
